Values of other authors in patent publication US20240173315A1 (OWP Pharmaceuticals, Inc., priority 2022, published 2024).
Where a name gives a salt, the structure may show the parent alone. Read-outs that look alike come from different tables or passages of the source.

Key:
[1] = humans, oral
[2] = oral dose
CYP3A4 = target: T1, CYP3A4 (Homo sapiens, UniProt P08684); conditions: in vitro
T1 construct: In vitro studies in human liver microsomes; from tissue; host or cells: human liver microsomes
T1 sequence (P08684 whole entry): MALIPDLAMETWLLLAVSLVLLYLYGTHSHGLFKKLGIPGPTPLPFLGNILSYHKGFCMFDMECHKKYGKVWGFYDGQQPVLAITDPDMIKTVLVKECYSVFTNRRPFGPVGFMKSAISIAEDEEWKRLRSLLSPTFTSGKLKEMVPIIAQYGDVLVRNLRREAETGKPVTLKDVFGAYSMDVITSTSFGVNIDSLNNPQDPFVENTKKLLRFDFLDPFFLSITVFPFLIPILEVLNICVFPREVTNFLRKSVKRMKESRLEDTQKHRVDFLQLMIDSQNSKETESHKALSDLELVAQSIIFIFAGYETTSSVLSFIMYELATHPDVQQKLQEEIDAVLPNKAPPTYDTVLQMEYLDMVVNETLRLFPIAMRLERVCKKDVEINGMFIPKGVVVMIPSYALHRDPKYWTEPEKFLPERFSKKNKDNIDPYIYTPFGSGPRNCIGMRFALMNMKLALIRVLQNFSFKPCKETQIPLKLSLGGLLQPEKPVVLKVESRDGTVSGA

Row | Structure (SMILES) | time after dosing at which peak plasma levels occur ([1]; taken on an empty stomach) | effect of food on amount of drug absorbed ([1]; taken shortly after ingestion of food) | time after dosing at which peak plasma levels occur ([1]; taken with food) | excreted unchanged in the urine [2] | metabolism in human liver microsomes (CYP3A4)
1 | O=c1n(CCCN2CCN(c3cccc(Cl)c3)CC2)nc2ccccn12 [trazodone hydrochloride] | approximately one | increase | ~2 h |  | 
2 | O=c1n(CCCN2CCN(c3cccc(Cl)c3)CC2)nc2ccccn12 [trazodone, 2-{3-[4-(3-chlorophenyl)piperazin-1-yl]propyl}[1,2,4]triazolo[4,3-a]pyridin-3(2H)-one] |  |  |  | less than 1 % of an oral dose | metabolized, via oxidative cleavage, to an active metabolite, m-chlorophenvlpipera.zine (mCPP) by CYP3A4
